Assay results taken from patent US20230233569A1 (Revolution Medicines, Inc., priority 2020, published 2023).
Values joined by “and” are separate entries in the source; they are usually repeats but may differ in a detail not shown here. Equal entries are not always repeated.

Assays:
Assay in all cases: Disruption of BRAF RBD interaction with Ras (FRET / MOA assay, with Cyclophilin A)
Format in all cases: biochemical
[1] = target: KRAS G12C (Homo sapiens, UniProt P01116+P62937, G12C); conditions: KRAS G12C; read-out: KRAS G12C FRET data IC50
Outline: (§1)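 First, compounds at a ten-point threefold dilution series (highest final concentration 30 μM) were incubated with nucleotide-loaded K-Ras, Cyclophilin A and BRAF RBD for 3 h at 25 °C. Next, detection antibodies were added for 1.5 h. Finally, IC50 was calculated from TR-FRET ratio decreases against DMSO controls.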

[2] = target: KRAS WT (Homo sapiens, UniProt P01116+P62937); conditions: KRAS WT; read-out: KRAS WT FRET data IC50
Outline: as §1

[3] = target: KRAS G12S (Homo sapiens, UniProt P01116+P62937, G12S); conditions: read-out: KRAS G12S FRET data, IC50
Outline: as §1

[4] = target: KRAS G12V (Homo sapiens, UniProt P01116+P62937, G12V); conditions: KRAS G12V; read-out: KRAS G12V FRET data IC50
Outline: as §1

[5] = target: KRAS G12D (Homo sapiens, UniProt P01116+P62937, G12D); conditions: read-out: KRAS G12D FRET data, IC50
Outline: as §1

[6] = target: KRAS G13C (Homo sapiens, UniProt P01116+P62937, G13C); conditions: KRAS G13C; read-out: KRAS G13C FRET data IC50
Outline: as §1

[7] = target: NRAS Q61K (Homo sapiens, UniProt P01111+P62937, Q61K); conditions: NRAS Q61K; read-out: NRAS Q61K FRET data IC50
Text: (§2) Disruption of B-Raf Ras-Binding Domain (BRAF^RBD) Interaction with K-Ras by Compounds of the Invention (Also Called a FRET Assay or an MOA Assay)
(§3) Note—The following protocol describes a procedure for monitoring disruption of K-Ras G12C (GMP-PNP) binding to BRAF^RBD by a compound of the invention. This protocol may also be executed substituting other Ras proteins or nucleotides.
(§4) The purpose of this biochemical assay was to measure the ability of test compounds to facilitate ternary complex formation between a nucleotide-loaded K-Ras isoform and Cyclophilin A; the resulting ternary complex disrupts binding to a BRAF^RBD construct, inhibiting K-Ras signaling through a RAF effector. Data is reported as IC50 values.
(§5) In assay buffer containing 25 mM HEPES pH 7.3, 0.002% Tween20, 0.1% BSA, 100 mM NaCl and 5 mM MgCl2, tagless Cyclophilin A, His6-K-Ras-GMPPNP, and GST-BRAF^RBD were combined in a 384-well assay plate at final concentrations of 25 μM, 12.5 nM and 50 nM, respectively. Compound was present in plate wells as a 10-point 3-fold dilution series starting at a final concentration of 30 μM. After incubation at 25° C. for 3 hours, a mixture of Anti-His Eu-W1024 and anti-GST allophycocyanin was then added to assay sample wells at final concentrations of 10 nM and 50 nM, respectively, and the reaction incubated for an additional 1.5 hours. […] Compounds that facilitate disruption of a K-Ras:RAF complex were identified as those eliciting a decrease in the TR-FRET ratio relative to DMSO control wells.
as §4, with “BRAF^RBDD” for “BRAF^RBD”

[8] = target: KRAS Q61H (Homo sapiens, UniProt P01116+P62937, Q61H); conditions: KRAS Q61H; read-out: KRAS Q61H FRET data IC50
Text: as §2, §3, §4, §5
as §4, with “BRAF^RBDD” for “BRAF^RBD”

[9] = target: NRAS Q61R (Homo sapiens, UniProt P01111+P62937, Q61R); conditions: NRAS Q61R; read-out: NRAS Q61R FRET data IC50
Text: as §2, §3, §4, §5
as §4, with “BRAF^RBDD” for “BRAF^RBD”

[10] = target: KRAS G13D (Homo sapiens, UniProt P01116+P62937, G13D); conditions: KRAS G13D; read-out: KRAS G13D FRET data IC50
Outline: as §1

[11] = target: NRAS G12C (Homo sapiens, UniProt P01111+P62937, G12C); conditions: NRAS G12C; read-out: NRAS G12C FRET data IC50
NRAS G12C, sequence (P01111 whole entry G12C): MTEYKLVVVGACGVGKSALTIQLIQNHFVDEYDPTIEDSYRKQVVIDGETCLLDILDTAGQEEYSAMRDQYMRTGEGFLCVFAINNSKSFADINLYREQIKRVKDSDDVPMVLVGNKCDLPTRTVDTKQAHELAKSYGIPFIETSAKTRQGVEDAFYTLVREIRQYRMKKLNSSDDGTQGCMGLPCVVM
NRAS G12C, sequence (P62937 whole entry): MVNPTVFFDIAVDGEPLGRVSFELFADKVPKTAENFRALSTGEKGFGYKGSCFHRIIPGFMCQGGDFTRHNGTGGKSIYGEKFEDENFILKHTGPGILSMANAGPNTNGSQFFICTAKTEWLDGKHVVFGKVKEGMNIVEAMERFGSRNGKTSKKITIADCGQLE

NRAS Q61K, sequence (P01111 whole entry Q61K, the tested form may be a part): as the sequence (P01111 whole entry G12C) above, with C12G, Q61K counted along it
NRAS Q61K, sequence (P62937 whole entry, the tested form may be a part): as the sequence (P62937 whole entry) above
NRAS Q61R, sequence (P01111 whole entry Q61R): as the sequence (P01111 whole entry G12C) above, with C12G, Q61R counted along it
NRAS Q61R, sequence (P62937 whole entry): as the sequence (P62937 whole entry) above
KRAS G12C, sequence (P01116 1-169 isoform P01116-2 G12C): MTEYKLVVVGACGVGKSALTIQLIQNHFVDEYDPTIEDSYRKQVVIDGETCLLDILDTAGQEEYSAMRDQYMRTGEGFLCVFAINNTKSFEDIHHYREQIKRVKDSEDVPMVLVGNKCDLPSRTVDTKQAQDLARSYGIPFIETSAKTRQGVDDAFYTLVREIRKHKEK
KRAS G12C, sequence (P62937 whole entry): as the sequence (P62937 whole entry) above
KRAS Q61H, sequence (P01116 1-169 isoform P01116-2 Q61H limits assumed): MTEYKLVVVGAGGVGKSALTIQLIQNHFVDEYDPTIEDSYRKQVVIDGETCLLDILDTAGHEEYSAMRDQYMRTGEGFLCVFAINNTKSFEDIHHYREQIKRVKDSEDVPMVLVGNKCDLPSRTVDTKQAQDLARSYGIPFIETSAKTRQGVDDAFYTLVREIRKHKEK
KRAS Q61H, sequence (P62937 whole entry): as the sequence (P62937 whole entry) above
KRAS G12V, sequence (P01116 1-169 isoform P01116-2 G12V limits assumed): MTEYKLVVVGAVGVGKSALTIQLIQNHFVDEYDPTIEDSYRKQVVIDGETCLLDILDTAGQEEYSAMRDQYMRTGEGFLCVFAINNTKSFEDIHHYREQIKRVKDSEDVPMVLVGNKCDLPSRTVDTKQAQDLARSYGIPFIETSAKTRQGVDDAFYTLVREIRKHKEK
KRAS G12V, sequence (P62937 whole entry): as the sequence (P62937 whole entry) above
KRAS G12D, sequence (P01116 1-169 isoform P01116-2 G12D limits assumed): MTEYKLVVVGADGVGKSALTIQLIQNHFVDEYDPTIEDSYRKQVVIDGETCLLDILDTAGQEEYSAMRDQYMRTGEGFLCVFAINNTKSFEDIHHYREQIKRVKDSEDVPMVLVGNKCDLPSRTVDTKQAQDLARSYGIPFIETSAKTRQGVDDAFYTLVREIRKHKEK
KRAS G12D, sequence (P62937 whole entry): as the sequence (P62937 whole entry) above
KRAS WT, sequence (P01116 1-169 isoform P01116-2 limits assumed): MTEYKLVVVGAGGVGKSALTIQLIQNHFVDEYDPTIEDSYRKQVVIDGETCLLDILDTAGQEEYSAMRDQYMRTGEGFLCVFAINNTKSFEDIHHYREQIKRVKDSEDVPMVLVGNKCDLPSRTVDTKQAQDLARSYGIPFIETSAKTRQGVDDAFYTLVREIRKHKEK
KRAS WT, sequence (P62937 whole entry): as the sequence (P62937 whole entry) above
KRAS G12S, sequence (P01116 1-169 isoform P01116-2 G12S limits assumed): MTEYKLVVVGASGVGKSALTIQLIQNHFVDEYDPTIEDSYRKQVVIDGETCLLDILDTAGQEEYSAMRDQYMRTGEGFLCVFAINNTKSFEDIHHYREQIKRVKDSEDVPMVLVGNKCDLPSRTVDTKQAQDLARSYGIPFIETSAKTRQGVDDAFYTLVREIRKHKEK
KRAS G12S, sequence (P62937 whole entry): as the sequence (P62937 whole entry) above
KRAS G13C, sequence (P01116 1-169 isoform P01116-2 G13C): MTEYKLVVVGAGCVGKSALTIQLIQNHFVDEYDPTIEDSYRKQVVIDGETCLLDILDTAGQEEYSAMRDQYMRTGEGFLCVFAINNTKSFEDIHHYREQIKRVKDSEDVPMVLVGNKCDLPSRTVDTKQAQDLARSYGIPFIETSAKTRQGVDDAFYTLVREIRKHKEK
KRAS G13C, sequence (P62937 whole entry): as the sequence (P62937 whole entry) above
KRAS G13D, sequence (P01116 1-169 isoform P01116-2 G13D limits assumed): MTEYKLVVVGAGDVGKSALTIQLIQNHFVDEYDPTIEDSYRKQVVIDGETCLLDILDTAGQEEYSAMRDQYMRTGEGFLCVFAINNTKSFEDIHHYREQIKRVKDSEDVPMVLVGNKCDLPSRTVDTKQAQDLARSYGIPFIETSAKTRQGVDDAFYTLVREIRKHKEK
KRAS G13D, sequence (P62937 whole entry): as the sequence (P62937 whole entry) above

SMILES	IC50 [1]	IC50 [2] [nM]	IC50 [3]	IC50 [4] [nM]	IC50 [5] [µM]	IC50 [6] [nM]	IC50 [7] [nM]	IC50 [8] [nM]	IC50 [9] [nM]	IC50 [10] [nM]	IC50 [11] [nM]
C=CC(=O)N1CC[C@H](C(=O)N(C)[C@H](C(=O)N[C@H]2Cc3cc(O)cc(c3)-c3cc(F)c4c(c3)c(c(-c3ccccc3CCOC)n4CC)CC(C)(C)COC(=O)[C@@H]3CCCN(N3)C2=O)C(C)C)C1 [Example A053]	100 to 1000 nM	> 10000	1000 to 10000 nM and > 10000 nM	> 10000	> 10	> 10000	> 10000	1000 to 10000	> 10000		
C=CC(=O)N1CC[C@H](C(=O)N(C)[C@H](C(=O)N[C@H]2Cc3cc(O)cc(c3)-c3ccc4c(c3)c(c(-c3c(F)cccc3CCOC)n4CC)CC(C)(C)COC(=O)[C@@H]3CCCN(N3)C2=O)C(C)C)C1 [Example A025]	100 to 1000 nM	1000 to 10000	1000 to 10000 nM	1000 to 10000	> 10	1000 to 10000	1000 to 10000	1000 to 10000	> 10000		
C=CC(=O)N1CC[C@H](C(=O)N(C)[C@H](C(=O)N[C@H]2Cc3cc(O)cc(c3)-c3ccc4c(c3)c(c(-c3cncnc3)n4CC)CC(C)(C)COC(=O)[C@@H]3CCCN(N3)C2=O)C(C)C)C1 [Example A061]	100 to 1000 nM	1000 to 10000	1000 to 10000 nM	1000 to 10000	> 10	1000 to 10000	1000 to 10000	1000 to 10000	> 10000		
C=CC(=O)N1CC[C@H](C(=O)N(C)[C@H](C(=O)N[C@H]2Cc3cc(O)cc(c3)-c3ccc4c(c3)c(c(-c3ccccc3N3CCOCC3)n4CC)CC(C)(C)COC(=O)[C@@H]3CCCN(N3)C2=O)C(C)C)C1 [Example A026]	100 to 1000 nM	> 10000	> 10000 nM	> 10000	> 10	> 10000	> 10000	1000 to 10000	> 10000		
C=CC(=O)N1CC[C@H](C(=O)N(C)[C@H](C(=O)N[C@H]2Cc3cc(O)cc(c3)-c3ccc4c(c3)c(c(-c3cccnc3N3CC(OC)C3)n4CC)CC(C)(C)COC(=O)[C@@H]3CCCN(N3)C2=O)C(C)C)C1 [Example A060]	100 to 1000 nM	> 10000	1000 to 10000 nM	1000 to 10000	> 10	1000 to 10000	1000 to 10000	1000 to 10000	> 10000		
C=CC(=O)N1CC[C@H](C(=O)N(C)[C@H](C(=O)N[C@H]2Cc3cc(O)cc(c3)-c3ccc4c(c3)c(c(-c3ccccc3[C@H](C)OC)n4CC)CC(C)(C)COC(=O)[C@@H]3CCCN(N3)C2=O)C(C)C)C1 [Example A022]	10 to 100 nM	100 to 1000	100 to 1000 nM	100 to 1000	1 to 10	100 to 1000	100 to 1000	10 to 100	100 to 1000		

Now from value to molecule:

IC50 [1]	IC50 [2] [nM]	IC50 [3]	IC50 [4] [nM]	IC50 [5] [µM]	IC50 [6] [nM]	IC50 [7] [nM]	IC50 [8] [nM]	IC50 [9] [nM]	IC50 [10] [nM]	IC50 [11] [nM]	SMILES
10 to 100 nM	100 to 1000	100 to 1000 nM	100 to 1000	1 to 10	100 to 1000	100 to 1000	10 to 100	1000 to 10000			C=CC(=O)N1CC[C@H](C(=O)N(C)[C@H](C(=O)N[C@H]2Cc3cc(O)cc(c3)-c3ccc4c(c3)c(c(-c3cnccc3C)n4CC)CC(C)(C)COC(=O)[C@@H]3CCCN(N3)C2=O)C(C)C)C1 [Example A077]
10 to 100 nM	1000 to 10000	100 to 1000 nM	1000 to 10000	> 10	1000 to 10000	1000 to 10000	100 to 1000	1000 to 10000			C=CC(=O)N1CC[C@H](C(=O)N(C)[C@H](C(=O)N[C@H]2Cc3cc(O)cc(c3)-c3ccc4c(c3)c(c(C3=C(COC)CCCC3)n4CC)CC(C)(C)COC(=O)[C@@H]3CCCN(N3)C2=O)C(C)C)C1 [Example A064]
10 to 100 nM	1000 to 10000	100 to 1000 nM	1000 to 10000	> 10	1000 to 10000	1000 to 10000	100 to 1000	1000 to 10000			C=CC(=O)N1CC[C@H](C(=O)N(C)[C@H](C(=O)N[C@H]2Cc3cc(O)cc(c3)-c3ccc4c(c3)c(c(-c3cncc(COC)c3)n4CC)CC(C)(C)COC(=O)[C@@H]3CCCN(N3)C2=O)C(C)C)C1 [Example A083]
10 to 100 nM	100 to 1000	10 to 100 nM	10 to 100	0.1 to 1	100 to 1000	100 to 1000	10 to 100	100 to 1000			CCn1c(-c2cnccc2COC)c2c3cc(ccc31)-c1cc(O)cc(c1)C[C@H](NC(=O)[C@H](C(C)C)N(C)C(=O)[C@H]1CCN(C(=O)/C=C/CN(C)C)C1)C(=O)N1CCC[C@H](N1)C(=O)OCC(C)(C)C2 [Example A087]
10 to 100 nM	1000 to 10000	100 to 1000 nM	100 to 1000	1 to 10	100 to 1000	100 to 1000	100 to 1000	1000 to 10000			C=CC(=O)N1CC[C@H](C(=O)N(C)[C@H](C(=O)N[C@H]2Cc3cc(O)cc(c3)-c3ccc4c(c3)c(c(-c3ccncc3)n4C(C)(C)C#N)CC(C)(C)COC(=O)[C@@H]3CCCN(N3)C2=O)C(C)C)C1 [Example A086]
10 to 100 nM	100 to 1000	100 to 1000 nM	100 to 1000	1 to 10	100 to 1000	100 to 1000	10 to 100	100 to 1000			C=CC(=O)N1CC[C@H](C(=O)N(C)[C@H](C(=O)N[C@H]2Cc3cc(O)cc(c3)-c3ccc4c(c3)c(c(-c3cc(F)cnc3COC)n4CC)CC(C)(C)COC(=O)[C@@H]3CCCN(N3)C2=O)C(C)C)C1 [Example A082]
1000 to 10000 nM	> 10000	> 10000 nM	> 10000	> 10	> 10000	> 10000	1000 to 10000	> 10000			C=CC(=O)N1CC[C@H](C(=O)N(C)[C@H](C(=O)N[C@H]2Cc3cc(O)cc(c3)-c3ccc4c(c3)c(c(-c3nccnc3COC)n4CC)CC(C)(C)COC(=O)[C@@H]3CCCN(N3)C2=O)C(C)C)C1 [Example A085]
10 to 100 nM and < 10 nM	10 to 100	10 to 100 nM	10 to 100	0.1 to 1	10 to 100	100 to 1000	10 to 100	100 to 1000	10 to 100	< 10	C=CC(=O)N1CC[C@H](C(=O)N(C)[C@H](C(=O)N[C@H]2Cc3cc(O)cc(c3)-c3ccc4c(c3)c(c(-c3cnccc3[C@H](C)OC)n4CC)CC(C)(C)COC(=O)[C@@H]3CCCN(N3)C2=O)C(C)C)C1 [Example A076]
100 to 1000 nM	> 10000	> 10000 nM	1000 to 10000	> 10	> 10000	1000 to 10000	1000 to 10000	> 10000			C=CC(=O)N1CC[C@H](C(=O)N(C)[C@H](C(=O)N[C@H]2Cc3cc(O)cc(c3)-c3ccc4c(c3)c(c(-c3c(CCOC)cccc3OC)n4CC)CC(C)(C)COC(=O)[C@@H]3CCCN(N3)C2=O)C(C)C)C1 [Example A080]
